In one series the target is E. eligens GUS (Lachnospira eligens, UniProt C4Z6Z2). Nature of the series: In vitro IC50 assay (TCS-G to TCS conversion, HPLC). It is filed as biochemical. As for the experimental part:
(§1) Reaction mixtures containing 10 µL GUS (10 nM final), 10 µL TCS-G (200 µM final), 5 µL inhibitor (various concentrations), and 25 µL buffer (50 mM HEPES, 50 mM NaCl, various pH) or (50 mM sodium acetate, 50 mM NaCl, various pH) were incubated for 10 min and quenched with 50 µL 25% trichloroacetic acid. Samples were centrifuged 10 min at 16,000 × g, and the supernatant was analyzed using the method described for the catalytic efficiency assay. Inhibition was calculated by the equation below:1 %inhibition=100×(1−(AUCinh−AUCmax)/(AUCmin−AUCmax)) where AUCmin is the signal of the uninhibited reaction, AUCmax is the signal of the 100% inhibited reaction, and AUCinh is the signal of the reaction at a given concentration of inhibitor. Percent inhibition values were plotted against the log of inhibitor concentration, and GraphPad Prism 8.0 was used to determine IC50 values.

Series [1] addresses Eubacterium sp. CAG: 76 GUS (Eubacterium sp. CAG:76, UniProt Z9TO06ZFY0). Described as above. It is filed as biochemical. The conditions noted are these: Fig. 4c, triplicate.
For a further series, the target named is R. gnavus 3 GUS (Mediterraneibacter gnavus, UniProt Z9UC37PQH0). Described as above. It is filed as biochemical.
A further series has as its target Loop 1 GUS enzymes. The series is described as follows: In vitro IC50 assay, purified Loop 1 GUS enzymes (group statement). It is filed as biochemical, gut microbial. Particulars: Fp2-L1 GUS and several other Loop 1 GUS enzymes; conversion of TCS-G to TCS. How it is done: as §1
The subject of a further series is MC38 cells. Nature of the series: Cell proliferation assay (MTT). It is filed as cell-based, mouse. How it is done:
Mouse (MC38) or human (Caco2 and HCT-116) intestinal cells were grown in DMEM medium fortified with 10% FBS (EMD Millipore Corporation). The cells were seeded in 96-well plates, then treated with GUSi or vehicle (0.2% v/v DMSO) for 24 h. Cell viability was determined using an MTT assay.
Fig. S14. GUSi treatment has little effect on the proliferation of mouse or human intestinal cells in vitro.
Mouse (MC38) or human (Caco2 and HCT-116) intestinal cells were treated with GUSi or vehicle (0.2% v/v
DMSO) for 24 h, then cell viability was analyzed using a MTT assay. The data are mean ± SEM, n = 5-6 per

Series [2] in a line: Solubility in water (statement). Type of series: physicochemical. The conditions noted are these: authors' reply to reviewers.
The next series relates to mammalian GUS enzyme. More on the design: method as in PMID 30062115. Particulars: cited from earlier work.
The subject of series [3] is epithelial cells in the ileum, proximal or distal colon. The arrangement: method as in PMID 32170007. The conditions noted are these: proximal or distal colon of the treated mice; cited from earlier work.
Another series deals with human fecal bacteria. The series is described as follows: Conversion of TCS-G to TCS by anaerobically cultured human fecal bacteria in vitro. It is filed as in vitro ADME. The conditions noted are these: from TCS-G, replicates.
Details of series [4]: method as in earlier work. Particulars: human, ref 32,33 (reply to reviewers), cited from earlier work.
Setting [5] is: GUSi 3.7037 uM, Fig. 4b, triplicate.
[6] abbreviates: GUSi 11.1111 uM, Fig. 4b, triplicate.
Where [7] appears, read: GUSi 33.3333 uM, Fig. 4b, triplicate.
The mark [8] stands for this setting: GUSi 100 uM, Fig. 4b, triplicate.
The mark [9] stands for this setting: GUSi 1.23457 uM, Fig. 4c, triplicate.
[10] abbreviates: GUSi 3.7037 uM, Fig. 4c, triplicate.
The mark [11] stands for this setting: GUSi 11.1111 uM, Fig. 4c, triplicate.
Where [12] appears, read: GUSi 33.3333 uM, Fig. 4c, triplicate.
[13] abbreviates: GUSi 100 uM, Fig. 4c, triplicate.

Each structure is given as a SMILES string. “And” between values parts separate entries of the source, which are not always exact repeats. Equal values may be shown once.

In the case of `C1CCc2c(c(N3CCOCC3)nc3sc4c(N5CCNCC5)nnnc4c23)C1` [GUSi, UNC10201652], the IC50 was 3.1 ± 0.1 µM on E. eligens GUS; 3.7 ± 0.5 µM on R. gnavus 3 GUS (conversion of TCS-G (200 µM) to TCS, FMN-binding GUS); 0.64 to 4.9 µM on Loop 1 GUS enzymes. At E. eligens GUS (GUSi 0.0457247 uM, Fig. 4b, triplicate), this compound registered an inhibition at 0.0457247 µM of 0%. This compound also gave an inhibition at 0.137174 µM against E. eligens GUS (GUSi 0.137174 uM, Fig. 4b, triplicate) of 0%. The inhibition at 0.411523 µM against E. eligens GUS (GUSi 0.411523 uM, Fig. 4b, triplicate) came out at 0%. Moreover, the “E. eligens GUS % inhibition” value is 2.145% and 1.672% at E. eligens GUS (GUSi 1.23457 uM, Fig. 4b, triplicate); 67.2992% and 67.384% at E. eligens GUS (setting [5]); 95.2204% and 97.0627% at E. eligens GUS (setting [6]); 103.909% and 106.718% on E. eligens GUS (setting [7]); 105.208% and 106.762% on E. eligens GUS (setting [8]). Besides, the inhibition at 3.7037 µM against E. eligens GUS (setting [5]) amounted to 64.7%; against R. gnavus 3 GUS (setting [10]) it was 46.7%. The inhibition at 11.1111 µM against E. eligens GUS (setting [6]) was found to be 90%; in series [1] (GUSi 11.1111 uM), 57.2%; against R. gnavus 3 GUS (setting [11]), 64.9%. For the same compound, the inhibition at 33.3333 µM worked out at 97.2% on E. eligens GUS (setting [7]), 73.6% in series [1] (GUSi 33.3333 uM) and 79.3% at R. gnavus 3 GUS (setting [12]). In addition, the inhibition at 100 µM is 97.5% against E. eligens GUS (setting [8]), 84.1% in series [1] (GUSi 100 uM) and 89.5% at R. gnavus 3 GUS (setting [13]). Also, the “R. gnavus 3 GUS % inhibition” value at R. gnavus 3 GUS (GUSi 0.0457247 uM, Fig. 4c, triplicate) is -1.753% and -3.75% and 4.591%; on R. gnavus 3 GUS (GUSi 0.137174 uM, Fig. 4c, triplicate) it was 0.1348% and -1.9775% and 2.5447%; at R. gnavus 3 GUS (setting [9]), 15.6836% and 27.3384%; on R. gnavus 3 GUS (setting [10]), 45.7722% and 58.3391%; on R. gnavus 3 GUS (setting [11]), 62.2571% and 74.9484%; on R. gnavus 3 GUS (setting [12]) it was 76.969% and 90.9388%. The “R. gnavus 3 GUS % inhibition” value on R. gnavus 3 GUS (setting [13]) is 87.2656% and 101.29%. The compound further gave an inhibition at 1.23457 µM on R. gnavus 3 GUS (setting [9]) of 17.8%. Further, the “effect on cell growth (MTT)” value in the series on MC38 cells (24-h treatment, concentration up to 10 µM) is reported as “little effect”. In addition, the “Cell proliferation (Fig. S14)” value in the series on MC38 cells (MC38, concentration 1, replicates) is 97.1748 and 94.9589 and 98.929 and 107.192 and 94.0356 and 103.315; in the series on MC38 cells (MC38, concentration 2, replicates) it was 103.453 and 99.2983 and 100.314 and 103.361 and 103.084 and 108.023; in the series with MC38 cells (MC38, concentration 5, replicates), 85.9108 and 74.139 and 84.9875 and 91.9121 and 86.7418 and 84.0181; in the series with MC38 cells (MC38, concentration 10, replicates), 68.784 and 87.3419 and 84.2489 and 91.7736 and 82.9102. Moreover, the solubility in water entry in [2] was “poorly solubilized”. Besides, the “effect on the activity of mammalian GUS enzyme” value with mammalian GUS enzyme was “no effect”. For the same compound, the “effect on the proliferation of epithelial cells” value in series [3] is on record as “no effect”.

As for `Oc1cc(Cl)ccc1Oc1ccc(Cl)cc1Cl` [TCS, Triclosan], the “TCS formed” value with human fecal bacteria is 10.13 pmol and 12.20 pmol and 15.57 pmol. Further, the “plasma concentrations of TCS (TCS plus TCS-G)” value in [4] (after weeks of daily use of TCS-containing toothpaste) is 90–1,000 nM. Moreover, the “plasma concentrations of TCS (TCS plus TCS-G), baseline” value in series [4] (before use of TCS-containing toothpaste) was 0.03 to 2.7 nM.

(Values after paper PMC8748916, “Microbial enzymes induce colitis by reactivating triclosan in the mouse gastrointestinal tract” (Nature Communications, 2022).)
